Laboratory results published in PMC5452050 (ACS Omega, 2017).
Where a chain is given by its changes, count along the chain named.

The compounds below were run against T1, FLT3 (D835H) (Homo sapiens, UniProt P36888, D835H) (assay: Kd determination).
T1 sequence (P36888 27-993 D835H): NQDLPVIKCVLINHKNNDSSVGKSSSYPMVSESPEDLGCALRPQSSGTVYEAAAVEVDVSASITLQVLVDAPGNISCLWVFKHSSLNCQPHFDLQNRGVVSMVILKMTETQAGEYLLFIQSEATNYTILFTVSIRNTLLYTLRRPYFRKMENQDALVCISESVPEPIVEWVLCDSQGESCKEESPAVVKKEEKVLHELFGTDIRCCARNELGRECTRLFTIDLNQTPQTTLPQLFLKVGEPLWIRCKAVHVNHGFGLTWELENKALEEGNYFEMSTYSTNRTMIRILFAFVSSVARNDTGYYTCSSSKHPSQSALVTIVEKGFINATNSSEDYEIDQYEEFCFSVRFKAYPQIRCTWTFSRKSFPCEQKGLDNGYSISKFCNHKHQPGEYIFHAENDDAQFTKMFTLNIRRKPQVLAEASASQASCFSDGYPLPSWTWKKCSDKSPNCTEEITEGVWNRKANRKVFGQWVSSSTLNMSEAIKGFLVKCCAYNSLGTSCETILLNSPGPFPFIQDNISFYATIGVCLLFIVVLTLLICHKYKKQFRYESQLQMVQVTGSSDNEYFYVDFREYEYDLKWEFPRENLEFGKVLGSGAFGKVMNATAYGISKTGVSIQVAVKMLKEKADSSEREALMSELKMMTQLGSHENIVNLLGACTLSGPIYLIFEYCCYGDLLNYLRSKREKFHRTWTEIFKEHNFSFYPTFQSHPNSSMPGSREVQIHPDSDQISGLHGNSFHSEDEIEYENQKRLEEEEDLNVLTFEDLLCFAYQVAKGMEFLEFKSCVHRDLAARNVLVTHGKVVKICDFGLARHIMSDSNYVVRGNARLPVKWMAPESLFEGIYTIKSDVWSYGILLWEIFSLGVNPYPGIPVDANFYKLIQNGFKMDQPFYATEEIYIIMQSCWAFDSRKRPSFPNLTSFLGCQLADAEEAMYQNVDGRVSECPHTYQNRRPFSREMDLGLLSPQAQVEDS
Assay type: binding

Row | Kd [nM] | Structure (SMILES)
1 | > 10000 | CC(C)Nc1ccnc(Nc2ccccc2-c2ccccc2)n1 [Compound 6a, N^2-([1,1′-Biphenyl]-2-yl)-N^4-isopropylpyrimidine-2,4-diamine]
2 | 1.2 | CC(C)Nc1ccnc(Nc2cccc(-c3cccnc3)c2)n1 [Compound 5e, N^4-Isopropyl-N^2-(3-(pyridin-3-yl)phenyl)pyrimidine-2,4-diamine]
3 | 22 | c1cncc(-c2cccc(Nc3nccc(NC4CCCCC4)n3)c2)c1 [Compound 1, N^4-Cyclohexyl-N^2-(3-(pyridin-3-yl)phenyl)pyrimidine-2,4-diamine]

These compounds were tested against T2, FLT3 (ITD, D835V) (Homo sapiens, UniProt P36888, D835V/ITD) (assay: Kd determination).
T2 sequence (P36888 564-993 D835V): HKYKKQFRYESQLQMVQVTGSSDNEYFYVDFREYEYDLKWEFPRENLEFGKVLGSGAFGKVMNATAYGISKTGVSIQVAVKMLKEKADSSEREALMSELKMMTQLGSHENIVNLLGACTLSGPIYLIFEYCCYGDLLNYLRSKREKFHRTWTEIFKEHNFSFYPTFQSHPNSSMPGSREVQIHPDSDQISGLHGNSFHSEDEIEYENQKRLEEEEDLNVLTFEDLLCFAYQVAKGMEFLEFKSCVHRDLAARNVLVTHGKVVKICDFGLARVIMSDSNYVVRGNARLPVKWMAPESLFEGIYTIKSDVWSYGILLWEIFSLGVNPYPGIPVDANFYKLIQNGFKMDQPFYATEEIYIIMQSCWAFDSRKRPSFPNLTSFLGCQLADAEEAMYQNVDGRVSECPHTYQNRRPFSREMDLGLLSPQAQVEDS
Assay type: binding

Row | Kd [nM] | Structure (SMILES)
4 | > 10000 | CC(C)Nc1ccnc(Nc2ccccc2-c2ccccc2)n1 [Compound 6a, N^2-([1,1′-Biphenyl]-2-yl)-N^4-isopropylpyrimidine-2,4-diamine]
5 | 0.36 | CC(C)Nc1ccnc(Nc2cccc(-c3cccnc3)c2)n1 [Compound 5e, N^4-Isopropyl-N^2-(3-(pyridin-3-yl)phenyl)pyrimidine-2,4-diamine]
6 | 7.2 | c1cncc(-c2cccc(Nc3nccc(NC4CCCCC4)n3)c2)c1 [Compound 1, N^4-Cyclohexyl-N^2-(3-(pyridin-3-yl)phenyl)pyrimidine-2,4-diamine]

The compounds below were run against T3, FLT3 (R834Q) (Homo sapiens, UniProt P36888, R834Q) (assay: Kd determination).
T3 sequence (P36888 27-993 R834Q): T1 sequence (P36888 27-993 D835H) with R808Q, H809D
Assay type: binding

Row | Kd [nM] | Structure (SMILES)
7 | > 10000 | CC(C)Nc1ccnc(Nc2ccccc2-c2ccccc2)n1 [Compound 6a, N^2-([1,1′-Biphenyl]-2-yl)-N^4-isopropylpyrimidine-2,4-diamine]
8 | 82 | CC(C)Nc1ccnc(Nc2cccc(-c3cccnc3)c2)n1 [Compound 5e, N^4-Isopropyl-N^2-(3-(pyridin-3-yl)phenyl)pyrimidine-2,4-diamine]
9 | 680 | c1cncc(-c2cccc(Nc3nccc(NC4CCCCC4)n3)c2)c1 [Compound 1, N^4-Cyclohexyl-N^2-(3-(pyridin-3-yl)phenyl)pyrimidine-2,4-diamine]

The compounds below were run against T4, FLT3-autoinhibited (Homo sapiens, UniProt P36888) (assay: Kd determination).
T4 sequence (P36888 564-993 limits assumed): T2 sequence (P36888 564-993 D835V) with V272D
Assay type: binding

Row | Kd [nM] | Structure (SMILES)
10 | > 10000 | CC(C)Nc1ccnc(Nc2ccccc2-c2ccccc2)n1 [Compound 6a, N^2-([1,1′-Biphenyl]-2-yl)-N^4-isopropylpyrimidine-2,4-diamine]
11 | 78 | CC(C)Nc1ccnc(Nc2cccc(-c3cccnc3)c2)n1 [Compound 5e, N^4-Isopropyl-N^2-(3-(pyridin-3-yl)phenyl)pyrimidine-2,4-diamine]
12 | 1100 | c1cncc(-c2cccc(Nc3nccc(NC4CCCCC4)n3)c2)c1 [Compound 1, N^4-Cyclohexyl-N^2-(3-(pyridin-3-yl)phenyl)pyrimidine-2,4-diamine]
